# Where “and” joins values, the source holds several entries; their conditions need not be identical. Equal values may be shown once. Entries after “also recorded” stand apart in the source; their conditions may differ.
# Assays:
# pro-inflammation = conditions: patients with cardiopulmonary bypass surgery; antiviral activity maintained; cited from earlier work
# SARS-CoV-2 = assay: Clinical case series: enoximone IV (Perfan) in COVID-19 patients at ICU admission, compared with prior control patients; conditions: for FiO2 / RESP. RATE: one value per patient; for RESP. SUPPORT: one value per patient 1-4
# [1] = at the doses used, all patients
# [2] = one value per enoximone-treated subject (1-4 = c4-c7)
structure (smiles),measurement,setting,value
"CSc1ccc(C(=O)c2[nH]c(=O)[nH]c2C)cc1 [enoximone, 1,3-dihydro-4-methyl-5-[4-(methylthio)benzoyl]-2H-imidazol-2-on]",effectiveness against pro-inflammation compared with methylprednisolone,pro-inflammation,as effective against pro-inflammation as methylprednisolone
same,time after start of enoximone until breathing calmly and able to call,"SARS-CoV-2; Patient 1, 20 mg IV then perfusion 10 mg/h, monosyllabic upon entry",10 min
same,time until calmer breathing and mobilisation,"SARS-CoV-2; Patient 2, 20 mg IV then 10 mg/h",about 2 days
same,time before the patient had lost the feeling of dyspnea,"SARS-CoV-2; Patient 2, 20 mg IV then 10 mg/h, sputum retention",1 days
same,time until patient breathed optimally and Optiflow could be reduced to 0,"SARS-CoV-2; Patient 3 (COPD Gold III), 20 mg IV then 10 mg/h",a day and a half
same,time until able to breathe calmly and communicate normally,"SARS-CoV-2; Patient 4, bolus then i.v. perfusor 5 mg/hour during 24 hours",≤ 10 min
same,FiO2,SARS-CoV-2; after 24 hrs of Enoximone,60% and 55% and 50%
same,RESP. RATE,SARS-CoV-2; after 24 hrs of Enoximone,15 and 12
same,RESP. SUPPORT,SARS-CoV-2; after 24 hrs of Enoximone,none and Optiflow (3×)
same,FiO2,SARS-CoV-2; after 48 hrs,60% and 50%
same,RESP. RATE,SARS-CoV-2; after 48 hrs,16 and 13
same,RESP. SUPPORT,SARS-CoV-2; after 48 hrs,none (2×) and Optiflow (2×)
same,persistence of beneficial effect,"SARS-CoV-2; after discontinuation of enoximone, all patients",beneficial effect persisted even after discontinuation
same,adverse events,SARS-CoV-2; [1],no clinically relevant adverse events were observed
same,tolerability,SARS-CoV-2; [1],well-tolerated in all patients
same,blood gas analysis,SARS-CoV-2; between before and 1 h after enoximone,minimal improvement in three out of four patients
same,stay in ICU,"SARS-CoV-2; enoximone-treated patients, controls 12-31 days",2 to 5 days
same,discharge from hospital after start of enoximone treatment,"SARS-CoV-2; enoximone-treated patients, controls 18-44 days following start of mechanical ventilation",5 to 12 days
same,overall stay in hospital,"SARS-CoV-2; enoximone-treated patients, controls 22-46 days, Mann-Whitney U test p=0.05",13 to 15 days
same,edema,SARS-CoV-2; following enoximone treatment,decrease of edema
same,oxygenation,"SARS-CoV-2; following enoximone treatment (Table 3, FiO2%)",substantially improved
same,need for mechanical ventilation,"SARS-CoV-2; four enoximone-treated patients vs three controls, Fisher's exact test p=0.029",none of the enoximone-treated patients required mechanical ventilation; also recorded: no need for mechanical ventilation
same,symptomatic relief,SARS-CoV-2; four patients,rapid symptomatic relief in two out of four patients
same,Days mechanical ventilation,SARS-CoV-2; [2],0 days
same,Total days in hospital [=ii + iii + iv],SARS-CoV-2; [2],14 days and 13 days and 15 days
same,Total duration of disease (onset-discharge) [=i + ii + iii + iv),SARS-CoV-2; [2],19 and 20 and 26
same,time to full recovery,SARS-CoV-2; patients 1 and 4,within a few hours
same,time to respond,"SARS-CoV-2; patients 2 and 3 (comorbid obesity or COPD GOLD III), sputum retention",24 to 36 h

# — patent publication US20230270724A1, “PDE3 inhibitors for treating viral infections” (priority 2020, published 2023)
